In patent US20250339396A1 (COSMAS THERAPEUTICS DEVELOPMENT INC., priority 2021, published 2025):

Assays:
mice (C57/BL) = assay: Elevated Plus Maze Test (EPMT); format: in vivo, mouse; parameters: key to closed arm time, difference between medians: Actual / closed arm time, difference between medians: Hodges-Lehmann: time in closed arms, in seconds (s); total distance, difference between medians: Actual / total distance, difference between medians: Hodges-Lehmann: unit not given here; details: 150 mg/kg oral gavage
Protocol: Prodrug D 150 mg/kg was dissolved in tap water per oral gavage. The solution was prepared <30 seconds before administration (100 μL administration volume).
Behavioral tests performed 2.5-3 hours after drug administration. 8 mice (C57/BL) per group were used received vehicle or Prodrug D.
The EPMT was used to assess anxiety-like reactivity as induced suppression of exploratory behavior. The maze was made of white Plexiglass and consisted of two open arms (16×5 cm) opposite each other and two walled arms (16×5×12 cm) opposite each other. […] The mice were each placed on the central platform facing one of the open arms. EPMT behavior was recorded for 5 min under bright white light (100 W). Behavioral endpoints that were analyzed included time spent in the open vs closed arms, frequency of open arm vs closed arm entries, time spent (s) on the central platform. Anxiolytic agents are known to increase open arm visits and time in the open arm. Anxiogenics increase closed arm visits.
The percentage of the time spent in the open arms was calculated employing the formula […] where OA represents the time (s) spent in open arms and CA is the time (s) spent in the closed arms. Behavioral experiments were recorded and analyzed using an automated tracking system (Video track, View Point Life Science, Montreal, Canada) equipped with infrared lighting-sensitive CCD cameras (Bambico F R et al., 2010).

neuropathic (SNI) rats = assay: Mechanical allodynia (von Frey, 50% paw withdrawal threshold) after spared nerve injury (SNI); format: in vivo, rat; details: 50 mg/kg per os
Protocol: Experiments were performed in male Sprague-Dawley rats (body weight: 250-300 g; Charles River Laboratories, St. Constant, QC, Canada) and adult male C57BL mice (body weight: 25-30 g; inbred). All animals were housed in small groups at a constant temperature of 22° C., with food and water provided ad libitum, and maintained under a 12 h light/dark cycle (lights on at 7:00 AM; lights off at 7:00 PM). All experimental procedures were conducted in accordance with the guidelines of the Canadian Council on Animal Care, and the protocols were approved by the Animal Care Committee at McGill University.
The different prodrug compounds as synthesized in Example 2 were tested and compared with Gabapentin (150 mg/kg, purchased from Sigma Aldrich, US). Prodrug was dissolved in saline, water, or a vehicle composed of 40% PEG400 and 60% water. Gabapentin was dissolved in a vehicle composed of 40% PEG400 and 60% water. All drugs (doses see the procedure descriptions below) were administrated per os (gavage) through a curved feeding tube (20 G for rats and 22 G for mice) at the beginning of the experiment unless otherwise specified. The dose of prodrug was chosen based on its pharmacokinetic properties, and the doses of Gabapentin were chosen from literature (Lopez-Canul, Palazzo et al. 2015).
Spared nerve injury was performed according to the method of (Decosterd I and Woolf CJ, 2000), see also Lopez-Canul et al., 2015. Rats and mice were anesthetized with isoflurane. The sciatic nerve was exposed at mid-thigh level distal to the trifurcation and freed of connective tissue; the three peripheral branches (sural, common peroneal, and tibial nerves) of the sciatic nerve were exposed without stretching nerve structures. Both tibial and common peroneal nerves were ligated and transected together. Tactile allodynia was absent in healthy (pre-surgery) and sham rats, and the mechanical withdrawal threshold in rats before SNI (pre-surgery) or sham was very close to the cutoff of dynamic plantar aesthesiometer (30 g) (Ugo Basile, Varese, Italy).
On day 14 after surgery, individual rats were placed in a test chamber (clear plastic wire mesh-bottomed cage) and allowed to acclimatize for 30 to 40 minutes. Von Frey filaments (Stoelting, Wood Dale, IL) were used to measure the 50% paw withdrawal threshold using the up-and-down method reported by {Chaplan, 1994 #399}. […] Lifting of the paw indicated a positive response and prompted the use of the […], whereas absence of paw withdrawal after 5 seconds indicated a negative response and prompted the next filament of increasing weight. This paradigm continued for 4 more measurements after the initial change of the behavioral response or until 5 consecutive negative or 4 consecutive positive responses. Based on observations on normal, unoperated, and sham-operated rats, the cutoff value of 15 g was selected as the upper limit for testing because stiffer hairs tended to raise the entire limb rather than to buckle, substantially changing the nature of the stimulus. The resulting scores were used to calculate the 50% response threshold using the formula proposed by Dixon. Allodynia was considered to be present when paw withdrawal thresholds were <4 g, and drugs raising this threshold were considered antiallodynic {Lopez-Canul, 2015}. Accordingly, all nerve ligated rats were verified to be allodynic, responding to a stimulus of <4 g. Rats without mechanical allodynia were excluded. After the determination of the basal response, allodynia was assessed at baseline, 0.5, 1, 1.5, 2, 2.5, 3, 4, 5, 6, 7, and 8 hours post-administration for each treatment described below. Groups of 5 to 6 rats per treatment were used, with each animal being used for 1 treatment only. […]

[1] = Stability of Prodrug D in solvents by HPLC; format: physicochemical
Protocol: For this test, we used HPLC with different solvent systems. […] Therefore, after initial assessment, this method was used for the remaining tests. Prodrug D or UCM924 (comparator) were dissolved in the different solvents listed in the table below and, after the waiting period indicated, HPLC tests were carried out according to the above. The results are shown in the table below, in which the percentages represent the quantity of prodrug D or UCM924 detected in the samples.

[2] = 2.5-3 hours after administration, 5 min EPMT

- quantity detected in the sample by HPLC ([1]; HPLC Method 1, H2O, 0 h, pH ~7.0): 90.15%
- quantity detected in the sample by HPLC ([1]; HPLC Method 2, 1N HCl, overnight at rt, pH ~0): 85.21%
- quantity detected in the sample by HPLC ([1]; HPLC Method 2, 40% PEG400:60% H2O, overnight at rt, pH ~7.0): 58.17%
- quantity detected in the sample by HPLC ([1]; HPLC Method 2, H2O, 0 h, pH ~7.0): 93.92%
- quantity detected in the sample by HPLC ([1]; HPLC Method 2, H2O, overnight at rt, pH ~7.0): 18.28%
- quantity detected in the sample by HPLC ([1]; HPLC Method 2, Saturated NaHCO3aq, 2 h at rt, pH ~8.5): 27.21%
- stability at different PH ([1]; rank order): acidic>neutral>basic
SMILES: CC(=O)N(CCN(c1ccc(F)cc1)c1cccc(Br)c1)C(=O)OCOC(=O)CN.Cl [Prodrug D, ((acetyl(2-((3-bromophenyl)(4-fluorophenyl)amino)ethyl)carbamoyl)oxy)methyl 2-aminoacetate hydrochloride]
- overall effect in the EPMT (mice (C57/BL)): antianxiety effects
- closed arm time, median (mice (C57/BL); [2]): 222.8, n = 8
- entries to open, median (mice (C57/BL); [2]): 11.00, n = 8
- open arm time, median (mice (C57/BL); [2]): 56.30, n = 8
- total distance, median (mice (C57/BL); [2]): 1521, n = 8
- closed arm time, difference between medians: Actual (mice (C57/BL); VEH minus Prodrug D (column A)): 25.75
- entries to open, difference between medians: Actual (mice (C57/BL); VEH minus Prodrug D (column A)): −2
- open arm time, difference between medians: Actual (mice (C57/BL); VEH minus Prodrug D (column A)): −30.85
- total distance, difference between medians: Actual (mice (C57/BL); VEH minus Prodrug D (column A)): −2.35
- closed arm time, difference between medians: Hodges-Lehmann (mice (C57/BL); VEH vs. Prodrug D): 29.45
- entries to open, difference between medians: Hodges-Lehmann (mice (C57/BL); VEH vs. Prodrug D): −2.5
- open arm time, difference between medians: Hodges-Lehmann (mice (C57/BL); VEH vs. Prodrug D): −25.9
- total distance, difference between medians: Hodges-Lehmann (mice (C57/BL); VEH vs. Prodrug D): −116.6
- AUC of withdrawal threshold vs. UCM924, t-test p (neuropathic (SNI) rats): 0.015
- Area Under the Curve (AUC) of withdrawal threshold vs. vehicle, Bonferroni p (FIG. 1B) (neuropathic (SNI) rats): < 0.0001
- withdrawal threshold over time vs. vehicle (two-way ANOVA, FIG. 1A) (neuropathic (SNI) rats; 0.5-8 h): significantly increased the withdrawal threshold
- withdrawal threshold vs. vehicle, Bonferroni post-hoc p (neuropathic (SNI) rats; after 3, 4, 5 and 6 hours): < 0.0001
- withdrawal threshold vs. vehicle, Bonferroni post-hoc p (neuropathic (SNI) rats; after 1 hour): 0.05
- withdrawal threshold vs. precursor UCM924, Bonferroni post-hoc p (neuropathic (SNI) rats; hour 5): < 0.001
- withdrawal threshold vs. precursor UCM924, Bonferroni post-hoc p (neuropathic (SNI) rats; hour 6): < 0.0001
